Values after ≈ are worked out from the molar mass of the structure shown. Read-outs that look alike come from different tables or passages of the source.
Columns and labels:
HeLa MKYP cells [1] = test: Human mitophagy assay (HeLa mKeima assay, FACS); type: cell-based; settings: for EC50: Homo sapiens, HeLa
In short: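 Mitophagy, read by FACS as the share of cells showing the lysosomal mtKeima emission shift, followed 6 h of 1 uM FCCP/oligomycin stimulation. Before that, HeLa MKYP cells spent 16 h with compound over a concentration range.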

HeLa MKYP cells [2] = test: Cell death measured by DAPI staining, with 1 μM FCCP/oligomycin or no toxin (no FO); type: cell-based; settings: for E105 death at 8.3 μM (no FO): 8.3 μM compound; for Max cell death at 25 μM compound, 1 uM FO (%) / Cell death at 25 μM (no FO) (%) / E104 death at 25 μM (no FO): 25 μM compound
In short: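 Cell death was read by DAPI staining after 6–6.5 h compound exposure in HeLa MKYP cells, either with 1 μM FCCP/oligomycin or without toxin. H2O2 served as the cell-death control.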

[3] = Mitotoxicity / Mitotox safety margin (therapeutic window); type: cell-based; settings: for mitotoxicity: FIG. 5-7
Kinetic solubility = type: physicochemical
pS129 α-syn = test: Preformed fibril (PFF) model in primary neuron culture, pS129 α-syn; type: cell-based
Protocol: 4. Preformed Fibril Model
Mouse and human alpha-synuclein monomers have been sourced commercially, then pre-formed fibrils have been generated as per the detailed protocol provided by the MJFF. For in vitro experiments primary hippocampal neurons isolated from P0 pups were grown for 7 days after which PFFs at 5 ug/ml were introduced Pre-formed fibrils will be introduced via stereotactic injection into the striatum of wt (C57BL/6J, Jax #000664) and transgenic A53T mice (B6;C3-Tg(Prnp-SNCA*A53T)83Vle/J, Jax #004479). Cohorts of drug-treated (oral gavage) and untreated animals will then be allowed to age for up to 6 months, at which point they will be sacrificed and perfused. Brains will be removed and fixed, then sectioned for analysis. We anticipate that untreated A53T animals will show significant spreading of aggregated alpha-synuclein pathology and pS129 staining, as well as some possible neurodegeneration; wt animals are also expected to show pS129 synuclein staining and synuclein aggregation, albeit less than that seen in the A53T background.

[4] = Inspection of crystallization and round cells; type: physicochemical; parameters: key: 1=yes crystals; 0=no crystals
Protocol: 5. Inspection of Crystallization and Round Cells
Briefly, the Hela MKYP (Mito-Keima/YFP-Parkin) cells were seeded at 10K cells/well. EP/MTK compounds were added at seeding (cells were still in suspension). The cells were incubated with the EP/MTK compounds for 16 hours, then 1 μM FCCP/oligomycin was added for 6 hours. Prior to harvesting, cells were scored by eye under 20× magnification for the presence or absence of crystalline or aggregated compound, or round cells.

cleaved caspase-3 = test: Cleaved caspase-3 levels in primary neuron culture; type: cell-based; settings: compared with toxins
[5] = HeLa mKeima assay, read-out: Mitophagy EC50 (HeLa mKeima assay)
[6] = mitophagy, 1 μM FCCP/oligomycin, read-out: E100 EC50
[7] = mitophagy, 1 μM FCCP/oligomycin
[8] = read-out: Mitophagy induction EC50
[9] = 25.0 μM compound, HeLa MKYP culture, 20× magnification
[10] = average ± spread, read-out: E100 EC50 (μM) (average)

SMILES	E102 max mitophagy, fold over DMSO (HeLa MKYP cells [1]; 1 μM FCCP/oligomycin) [fold over DMSO]	EC50 (HeLa MKYP cells [1]; [5]) [µM]	EC50 (HeLa MKYP cells [1]; [6]) [µM]	E101 lowest effective dose (HeLa MKYP cells [1]; [7]) [µM]	Max cell death at 25 μM compound, 1 uM FO (%) (HeLa MKYP cells [2])	Cell death at 25 μM (no FO) (%) (HeLa MKYP cells [2])	E103 max death with 1 μM FO (HeLa MKYP cells [2])	Mitotox safety margin (Therapeutic window) [3]	solubility kinetic (Kinetic solubility) [µM]	EC50 (HeLa MKYP cells [1]; [8]) [µM]	Highest safe dose (cytotoxicity; no FO; safe means DAPI+ <20%) (HeLa MKYP cells [2]) [µM]	Max % death with 1 μM FO (HeLa MKYP cells [2]) [%]	mitotoxicity [3]	Mito-Safety Index (highest safe dose/EC50) [3]	Highest safe dose (μM) (mitotox or cytotox) [3] [µM]	other results
FC(F)(F)c1cc2c(N[C@H]3c4ccccc4CC[C@@H]3N3CCOCC3)ncnc2[nH]1 (single isomer, unassigned) [EP-0038098]	9.78	0.22	0.22	0.10	24	5.29	24.02	++++ (++++ = 30<)	14.1 (≈ 5.89 µg/mL)							EC50 (HeLa MKYP cells [1]; text statement referring to Tables 2A and 2B, FIG. 1A-F, read-out: EC50): < 0.3 µM; E105 death at 8.3 μM (no FO) (HeLa MKYP cells [2]): 2.59; E104 death at 25 μM (no FO) (HeLa MKYP cells [2]): 5.29; toxicity (HeLa MKYP cells [2]; text statement referring to Tables 2A and 2B, FIG. 1A-F): less than 10%; pathological α-synuclein levels in primary neurons (pS129 α-syn; FIG. 8A-C): reduce pathological α-synuclein levels
FC(F)(F)c1cc2c(N[C@H]3c4ccccc4CC[C@@H]3N3CC4(CCOCC4)C3)ncnc2[nH]1 (single isomer, unassigned) [EP-0038463]	3.95	2.59	2.59	2.78	87.805	59.8	87.81	+ (+ = <10)	153 (≈ 70 µg/mL)	2.59	8.3	87.8	low mitotoxicity	3.20	8.3	E105 death at 8.3 μM (no FO) (HeLa MKYP cells [2]): 4.21; E104 death at 25 μM (no FO) (HeLa MKYP cells [2]): 59.77; visual inspection of crystallization ([4]; 0.1 μM compound): 0; visual inspection of crystallization ([4]; 0.3 μM compound): 0; visual inspection of crystallization ([4]; 0.9 μM compound): 0; visual inspection of crystallization ([4]; 2.8 μM compound): 0; visual inspection of crystallization ([4]; 8.3 μM compound): 0; visual inspection of crystallization [4, 9]: 0
Fc1ccc2c(c1)CC[C@H](N1CCOCC1)[C@H]2Nc1ncnc2[nH]c(C3CC3)cc12 (single isomer, unassigned) [EP-0038521]	5.24	0.37	0.37	2.78	6.77	3.42	6.77	+++ (+++ = 20 < x < 30)	1.56 (≈ 0.636 µg/mL)	0.34	25.0	7.6	low mitotoxicity	24.49	8.3	EC50 (HeLa MKYP cells [1]; [10]): 0.3 ± 0.07 µM
FC(F)(F)c1cc2c(N[C@H]3c4ccccc4CC[C@@H]3N3C[C@H]4COC[C@H]4C3)ncnc2[nH]1 (single isomer, unassigned) [EP-0038582]					5.87	3.77				> 25	25.0	4.3			25.0	Mitophagy EC50 (HeLa mKeima assay) (μM) (HeLa MKYP cells [1]; HeLa mKeima assay): Minimal; solubility kinetic (Kinetic solubility; kinetic from dmso stock): 1.56 µM (≈ 0.692 µg/mL)
FC(F)(F)c1cc2c(N[C@@H]3c4ccccc4CC[C@H]3N3C[C@H]4COC[C@H]4C3)ncnc2[nH]1 (single isomer, unassigned) [EP-0038583]		0.07			39.5	6.03		+ (+ = <10)	1.56 (≈ 0.692 µg/mL)	0.06	25.0	18.1		158.93	9.1	
FC(F)(F)c1cc2c(N[C@H]3c4ccccc4CC[C@@H]3N3C[C@@H]4COC[C@H]4C3)ncnc2[nH]1 (single isomer, unassigned) [EP-0040270]																pS129 α-syn (250-12) in primary neuron culture (pS129 α-syn; increasing doses): reduces; pS129 α-syn (monomer) in primary neuron culture (pS129 α-syn; increasing doses): reduces; pS129 α-syn in primary neuron culture (pS129 α-syn; increasing doses): reduces; cleaved caspase-3 levels (cleaved caspase-3): increase cleaved caspase-3 levels
FC(F)(F)c1cc2c(N[C@@H]3c4ccccc4CC[C@@H]3N3CCOCC3)ncnc2[nH]1 [EP-0037820]		17.4			58	41.4		+ (+ = <10)	14.5 (≈ 6.05 µg/mL)	20.3	16.7	60.7				
FC(F)(F)c1cc2c(N[C@H]3c4ccccc4CC[C@@H]3N3C[C@H]4COC[C@H]4C3)ncnc2[nH]1 [EP-0038461]	5.44	0.11	0.11	0.93	7.97	4.31	7.97	+++ (+++ = 20 < x < 30)	1.56 (≈ 0.692 µg/mL)	0.1	25.0	9.7	low mitotoxicity	27.53	2.8	EC50 (HeLa MKYP cells [1]; [10]): 0.1 ± 0.01 µM; visual inspection of crystallization ([4]; 0.1 μM compound): 0; visual inspection of crystallization ([4]; 0.3 μM compound): 0; visual inspection of crystallization ([4]; 0.9 μM compound): 0; visual inspection of crystallization ([4]; 2.8 μM compound): 0; visual inspection of crystallization ([4]; 8.3 μM compound): 0; visual inspection of crystallization [4, 9]: 1

Source: patent publication US20240018146A1, “COMPOSITIONS AND METHODS OF USING THE SAME FOR TREATMENT OF NEURODEGENERATIVE AND MITOCHONDRIAL DISEASE” (MITOKININ, INC., priority 2020, published 2024)
